This note sets out measurements from US11649242B2, “Pyrrolopyrrole compositions as pyruvate kinase (PKR) activators” (FORMA Therapeutics, Inc., priority 2017, dated 2023).

What all share (format): biochemical
The target in one assay is PKR(R510Q) (Homo sapiens, UniProt P30613, R510Q). As to the kind of experiment: Luminescence Assay Protocol (Kinase Glo Plus), PKR(R510Q/without FBP). As to conditions: PKRR510Q, without FBP; for activation at 1.54 µM: compound 1.54 μM, read-out: F - AC50 LUM KGP woFBP % Fold @ 1.54 μM mean; for AC50: gmean, read-out: D - AC50 LUM KGP woFBP AC50 μM gmean; for Emax: highest % fold increase at any concentration, read-out: E - AC50 LUM KGP woFBP MAX % FOLD mean. How it is done:
(§1) Example 47: PKR(Wt/without FBP), PKR(G332S/with FBP), PKR(R510Q/without FBP)
(§2) The phosphorylation of Adenosine-5′-diphosphate (ADP) by various mutants of PKR was determined by the Kinase Glo Plus Assay (Promega) in the presence or absence of FBP [D-Fructose-1,6-diphosphate; BOC Sciences, CAS: 81028-91-3] as follows. Unless otherwise indicated, all reagents were purchased from Sigma-Aldrich. All reagents were prepared in buffer containing 50 mM Tris-HCl, 100 mM KCl, 5 mM MgCl2, and 0.01% Triton X100, 0.03% BSA, and 1 mM DTT. Enzyme and PEP [Phospho(enol) pyruvic acid] were added at 2× to all wells of an assay-ready plate containing serial dilutions of test compounds or DMSO vehicle. Final enzyme concentrations for PKR(wt), PKR(R510Q), and PKR(G332S) were 0.8 nM, 0.8 nM, and 10 nM respectively. Final PEP concentration was 100 μM. The Enzyme/PEP mixture was incubated with compounds for 30 minutes at RT before the assay was initiated with the addition of 2×ADP [Adenosine-5′-diphosphate] and KinaseGloPlus. Final concentration of ADP was 100 μM. […] For assays containing FBP, that reagent is added at 30 μM upon reaction initiation. Reactions were allowed to progress for 45 minutes at RT until luminescence was recorded by the BMG PHERAstar FS Multilabel Reader. All compounds were tested in triplicate at concentrations ranging from 42.5 μM to 2.2 nM in 0.83% DMSO.
(§3) Luminescence values were converted to % Fold increase by normalizing to the average of the DMSO control and multiplying by 100. Max, min, slope and AC50 were determined by the standard four parameter fit algorithm of ActivityBase XE Runner. Compounds were evaluated with three parameters—AC50, MAX % Fold, and % Fold@1.54 μM (FIG. 1). The AC50 value for a compound is the concentration […] corresponding to the midway between the maximum and minimum values of the four parameter logistic curve fit (i.e., at which the % fold increase along the four parameter logistic curve fit is halfway between MAX % Fold and MIN % Fold (% Fold Midpoint)), MAX % Fold is the highest fold increase observed at any concentration of compound, and % Fold@1.54 μM is the fold increase at a compound concentration of 1.54 μM. The parameter % Fold@1.54 μM was selected to capture elements of both the AC50 and MAX % Fold and to provide a ranking based on both potency and effect. The compound concentration of 1.54 μM was chosen as one that can optimally differentiate the set of compounds based on the range of activities observed.
(§4) As set forth in Tables 6 and 7 below, AC50 values (columns A, D, G) are defined as follows: ≤0.1 μM (+++); >0.1 μM and ≤1.0 μM (++); >1.0 μM and ≤40 μM (+); >40 μM (0). Max % FOLD values (columns B, E, H) are defined as follows: ≤75% (+); >75% and ≤250% (++); >250% and ≤500% (+++). % Fold@1.54 μM values (columns C, F, I) are defined as follows: ≤75% (+); >75% and ≤250% (++); >250% and ≤500% (+++).

For the next assay, the target named is PKR(G332S) (Homo sapiens, UniProt P30613, G332S). Briefly: Luminescence Assay Protocol (Kinase Glo Plus), PKR(G332S/with FBP). As to conditions: PKRG332S, with FBP; for activation at 1.54 µM: compound 1.54 μM, read-out: C - AC50 LUM KGP FBP % Fold @ 1.54 μM mean; for AC50: gmean, read-out: A - AC50 LUM KGP FBP AC50 μM gmean; for Emax: highest % fold increase at any concentration, read-out: B - AC50 LUM KGP FBP MAX % FOLD mean. How it is done:
as §1, §2, §3, §4

A further assay deals with PKR(wt) (Homo sapiens, UniProt P30613). As to the kind of experiment: Luminescence Assay Protocol (Kinase Glo Plus), PKR(Wt/without FBP). The settings on record: without FBP; for activation at 1.54 µM: compound 1.54 μM, read-out: I - AC50 LUM KGP woFBP % Fold @ 1.54 μM mean; for AC50: gmean, read-out: G - AC50 LUM KGP woFBP AC50 μM gmean; for Emax: highest % fold increase at any concentration, read-out: H - AC50 LUM KGP woFBP MAX % FOLD mean. How it is done: as §1, §2, §3, §4
For orientation: Kinase-Glo measures the ATP left after a reaction by luminescence.

Sequence of PKR(wt) (P30613 whole entry): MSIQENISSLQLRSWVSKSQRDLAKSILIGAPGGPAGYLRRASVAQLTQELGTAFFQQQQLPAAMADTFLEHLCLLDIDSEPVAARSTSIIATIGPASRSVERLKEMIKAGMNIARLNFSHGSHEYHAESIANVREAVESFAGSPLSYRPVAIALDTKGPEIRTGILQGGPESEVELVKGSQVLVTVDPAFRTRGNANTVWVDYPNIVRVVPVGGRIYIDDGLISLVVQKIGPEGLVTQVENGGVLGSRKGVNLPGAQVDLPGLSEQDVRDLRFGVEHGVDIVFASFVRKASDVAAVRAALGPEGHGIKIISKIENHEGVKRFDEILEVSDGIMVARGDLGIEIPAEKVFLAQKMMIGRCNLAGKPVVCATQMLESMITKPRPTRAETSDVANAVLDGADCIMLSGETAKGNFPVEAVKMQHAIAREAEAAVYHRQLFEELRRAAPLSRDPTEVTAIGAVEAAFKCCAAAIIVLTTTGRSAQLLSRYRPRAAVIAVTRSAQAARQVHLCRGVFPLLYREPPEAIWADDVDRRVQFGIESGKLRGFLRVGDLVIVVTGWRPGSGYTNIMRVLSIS
Sequence of PKR(G332S) (P30613 whole entry G332S): as the sequence (P30613 whole entry) above, with G332S counted along it
Sequence of PKR(R510Q) (P30613 whole entry R510Q): as the sequence (P30613 whole entry) above, with R510Q counted along it

As usually defined, the AC50 is the concentration at which the activity in the assay is half-maximal. With `O=C(C1CCCOC1)N1CC2=C(C1)CN(S(=O)(=O)c1ccc3ncsc3c1)C2` (stereo not drawn) [Example 15, (5-(benzo[d]thiazol-6-ylsulfonyl)-3,4,5,6-tetrahydropyrrolo[3,4-c]pyrrol-2(1H)-yl)(tetrahydro-2H-pyran-3-yl)methanone], on PKR(R510Q), the activation at 1.54 µM lay in the range of 75 to 250%, the AC50 was 1 to 40 µM and the Emax is 250 to 500%. Also, on PKR(G332S), the activation at 1.54 µM fell in the range of 75 to 250%, the AC50 is above 40 µM and the Emax was 75 to 250%. Moreover, on PKR(wt), the activation at 1.54 µM was 75 to 250%, the AC50 was 0.1 to 1 µM and the Emax is 75 to 250%.
For `O=C(C1COc2ccccc21)N1CC2=C(C1)CN(S(=O)(=O)c1ccc3ncsc3c1)C2` (stereo not drawn) [Example 43, (5-(benzo[d]thiazol-6-ylsulfonyl)-3,4,5,6-tetrahydropyrrolo[3,4-c]pyrrol-2(1H)-yl)(2,3-dihydrobenzofuran-3-yl)methanone], on PKR(R510Q), the activation at 1.54 µM fell in the range of 250 to 500%, the AC50 lay within 1 to 40 µM and the Emax was in the range of 250 to 500%. At PKR(G332S), the activation at 1.54 µM was 75 to 250%, the AC50 was 0.1 to 1 µM and the Emax was in the range of 75 to 250%. In addition, at PKR(wt), the activation at 1.54 µM is 250 to 500%, the half-maximal activity concentration (AC50) fell in the range of 0.1 to 1 µM and the Emax lay within 250 to 500%.
With `CC1(C)CNc2cc(S(=O)(=O)N3CC4=C(CN(C(=O)[C@H](CO)c5ccccc5)C4)C3)ccc2O1` [Example 32, (S)-1-(5-((2,2-dimethyl-3,4-dihydro-2H-benzo[b][1,4]oxazin-6-yl)sulfonyl)-3,4,5,6-tetrahydropyrrolo[3,4-c]pyrrol-2(1H)-yl)-3-hydroxy-2-phenylpropan-1-one], on PKR(R510Q), the activation at 1.54 µM fell in the range of 75 to 250%, the AC50 was at most 0.1 µM and the Emax is 75 to 250%. Also, on PKR(G332S), the activation at 1.54 µM lay within 75 to 250%, the AC50 is above 40 µM and the Emax was in the range of 75 to 250%. Also, on PKR(wt), the activation at 1.54 µM fell in the range of 75 to 250%, the AC50 is at most 0.1 µM and the Emax fell in the range of 75 to 250%.
Take `O=C([C@H](CO)c1ccccc1)N1CC2=C(C1)CN(S(=O)(=O)c1cnc3c(c1)OCCO3)C2` (single isomer, unassigned) [Example 1]: the results for the activation at 1.54 µM on PKR(R510Q), on PKR(G332S) and at PKR(wt) were 250 to 500%, 75 to 250% and 75 to 250%, respectively. Further, the Emax at PKR(R510Q) was in the range of 250 to 500%; on PKR(G332S) it was 75 to 250%; at PKR(wt) it was 75 to 250%.
With `C[C@@H](O)[C@H](C(=O)N1CC2=C(C1)CN(S(=O)(=O)c1ccc(OC(F)F)cc1)C2)c1ccccc1` (racemic) [Example 27, (2R,3R and 2S,3S)-1-(5-((4-(difluoromethoxy)phenyl)sulfonyl)-3,4,5,6-tetrahydropyrrolo[3,4-c]pyrrol-2(1H)-yl)-3-hydroxy-2-phenylbutan-1-one], the results for the activation at 1.54 µM at PKR(R510Q), at PKR(G332S) and at PKR(wt) were 250 to 500%, 75 to 250% and 250 to 500%, respectively. For the same compound, the AC50 at PKR(R510Q) was 0.1 to 1 µM; on PKR(G332S), at most 0.1 µM; at PKR(wt), at most 0.1 µM. Moreover, the Emax at PKR(R510Q) lay in the range of 250 to 500%; on PKR(G332S), 75 to 250%; on PKR(wt), 250 to 500%.
For `O=C([C@H](CO)c1ccccc1)N1CC2=C(C1)CN(S(=O)(=O)c1ccc(OC(F)F)cc1)C2` [Example 31, (S)-1-(5-((4-(difluoromethoxy)phenyl)sulfonyl)-3,4,5,6-tetrahydropyrrolo[3,4-c]pyrrol-2(1H)-yl)-3-hydroxy-2-phenylpropan-1-one], on PKR(R510Q), the activation at 1.54 µM fell in the range of 250 to 500%, the AC50 was at most 0.1 µM and the Emax lay within 250 to 500%. On PKR(G332S), the activation at 1.54 µM was 75 to 250%, the AC50 was at most 0.1 µM and the Emax was 75 to 250%. Besides, on PKR(wt), the activation at 1.54 µM was in the range of 250 to 500%, the AC50 was at most 0.1 µM and the Emax fell in the range of 250 to 500%.
With `O=C([C@H](CO)c1ccccc1)N1CC2=C(C1)CN(S(=O)(=O)c1cccnc1)C2` [Example 50, (2S)-3-hydroxy-2-phenyl-1-[5-(pyridine-3-sulfonyl)-1H,2H,3H,4H,5H,6H-pyrrolo[3,4-c]pyrrol-2-yl]propan-1-one], the activation at 1.54 µM at PKR(R510Q) was 250 to 500%; on PKR(G332S) it was 75 to 250%; at PKR(wt), 75 to 250%. For the same compound, the AC50 on PKR(R510Q), at PKR(G332S) and at PKR(wt) was 0.1 to 1 µM each time. Also, the Emax at PKR(R510Q) was 250 to 500%; on PKR(G332S), 75 to 250%; at PKR(wt), 250 to 500%.
Turning to `O=C(C1COCCN1)N1CC2=C(C1)CN(S(=O)(=O)c1ccc3ncsc3c1)C2` (stereo not drawn) [Example 56, (5-(benzo[d]thiazol-6-ylsulfonyl)-3,4,5,6-tetrahydropyrrolo[3,4-c]pyrrol-2(1H)-yl)(morpholin-3-yl)methanone], at PKR(R510Q), the activation at 1.54 µM was in the range of 75 to 250%, the AC50 lay within 1 to 40 µM and the Emax was in the range of 75 to 250%. Moreover, on PKR(G332S), the activation at 1.54 µM lay in the range of 75 to 250%, the AC50 was above 40 µM and the Emax lay within 75 to 250%.
For `O=C(C(CO)c1ccccc1)N1CC2=C(C1)CN(S(=O)(=O)c1ccc3c(c1)OCCO3)C2` (stereo not drawn) [Example 18, 1-(5-((2,3-dihydrobenzo[b][1,4]dioxin-6-yl)sulfonyl)-3,4,5,6-tetrahydropyrrolo[3,4-c]pyrrol-2(1H)-yl)-3-hydroxy-2-phenylpropan-1-one], on PKR(R510Q), the activation at 1.54 µM fell in the range of 75 to 250%, the AC50 was at most 0.1 µM and the Emax was in the range of 75 to 250%. Besides, on PKR(G332S), the activation at 1.54 µM lay in the range of 75 to 250%, the AC50 was above 40 µM and the Emax was in the range of 75 to 250%.
As to `COCCC(=O)N1CC2=C(C1)CN(S(=O)(=O)c1ccc3c(c1)OCCO3)C2` [Example 57, 1-(5-((2,3-dihydrobenzo[b][1,4]dioxin-6-yl)sulfonyl)-3,4,5,6-tetrahydropyrrolo[3,4-c]pyrrol-2(1H)-yl)-3-methoxypropan-1-one], at PKR(R510Q), the activation at 1.54 µM fell in the range of 75 to 250%, the AC50 was 0.1 to 1 µM and the Emax is 75 to 250%. For the same compound, on PKR(G332S), the activation at 1.54 µM was in the range of 75 to 250%, the AC50 was at most 0.1 µM and the Emax lay in the range of 75 to 250%.
Take `COCCC(=O)N1CC2=C(C1)CN(S(=O)(=O)c1ccc3occc3c1)C2` [Example 58, 1-(5-(benzofuran-5-ylsulfonyl)-3,4,5,6-tetrahydropyrrolo[3,4-c]pyrrol-2(1H)-yl)-3-methoxypropan-1-one]: at PKR(R510Q), the activation at 1.54 µM lay in the range of 75 to 250%, the AC50 fell in the range of 0.1 to 1 µM and the Emax was 250 to 500%. At PKR(G332S), the activation at 1.54 µM lay within 75 to 250%, the AC50 is at most 0.1 µM and the Emax was 75 to 250%.
